ChEMBL document CHEMBL3991601, “The target landscape of clinical kinase drugs” (Science, 2017)
Activity calls are given as the source filed them. Rule as the data show it, for most assays here: actives have a measured Kd and inactives only a lower limit.

biological target: T1, Serine/threonine-protein kinase Nek1 (Homo sapiens, UniProt Q96PY6)
T1 sequence (Q96PY6 whole entry): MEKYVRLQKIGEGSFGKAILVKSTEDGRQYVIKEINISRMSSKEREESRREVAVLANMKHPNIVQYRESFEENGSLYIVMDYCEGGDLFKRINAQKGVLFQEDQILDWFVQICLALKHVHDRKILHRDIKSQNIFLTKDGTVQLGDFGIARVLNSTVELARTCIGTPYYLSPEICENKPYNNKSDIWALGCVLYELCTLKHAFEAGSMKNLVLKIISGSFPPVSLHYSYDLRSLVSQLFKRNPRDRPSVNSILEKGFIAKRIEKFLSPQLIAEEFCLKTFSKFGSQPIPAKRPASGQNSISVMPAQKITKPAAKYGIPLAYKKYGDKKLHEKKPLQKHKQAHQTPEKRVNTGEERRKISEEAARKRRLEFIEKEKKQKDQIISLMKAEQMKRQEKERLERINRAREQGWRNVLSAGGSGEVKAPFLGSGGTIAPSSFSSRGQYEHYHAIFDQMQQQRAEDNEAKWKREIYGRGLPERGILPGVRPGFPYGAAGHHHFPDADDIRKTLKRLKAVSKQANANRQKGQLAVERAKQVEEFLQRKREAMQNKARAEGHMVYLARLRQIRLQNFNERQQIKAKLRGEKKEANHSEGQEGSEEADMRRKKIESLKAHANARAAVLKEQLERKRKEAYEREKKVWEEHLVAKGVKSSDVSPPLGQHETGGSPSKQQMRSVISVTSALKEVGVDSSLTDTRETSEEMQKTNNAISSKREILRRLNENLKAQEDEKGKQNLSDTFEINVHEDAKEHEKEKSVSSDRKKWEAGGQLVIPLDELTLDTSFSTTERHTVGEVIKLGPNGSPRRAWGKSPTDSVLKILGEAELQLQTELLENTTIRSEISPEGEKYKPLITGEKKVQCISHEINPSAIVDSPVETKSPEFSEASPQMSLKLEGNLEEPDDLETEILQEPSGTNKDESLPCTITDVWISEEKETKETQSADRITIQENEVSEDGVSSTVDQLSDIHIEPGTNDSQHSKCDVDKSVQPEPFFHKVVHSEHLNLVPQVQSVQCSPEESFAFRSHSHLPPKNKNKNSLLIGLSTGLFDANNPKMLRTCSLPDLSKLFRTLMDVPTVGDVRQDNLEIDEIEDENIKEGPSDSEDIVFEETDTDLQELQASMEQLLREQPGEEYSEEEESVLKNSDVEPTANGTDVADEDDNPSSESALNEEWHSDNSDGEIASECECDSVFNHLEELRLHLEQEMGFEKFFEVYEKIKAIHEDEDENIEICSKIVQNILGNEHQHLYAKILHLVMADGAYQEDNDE
Also: in the data inactive means no Kd found up to 30 µM.

Compound	Kd
O=C(O)[C@]1(Cc2cccc(Nc3nccs3)n2)CC[C@@H](Oc2cccc(Cl)c2F)CC1 [MK-5108]	> 30 µM (inactive)
C1=C/COCc2cc(ccc2OCCN2CCCC2)Nc2nccc(n2)-c2cccc(c2)COC/1 [PACRITINIB]	> 30 µM (inactive)
Cc1ccc(-n2nc(C(C)(C)C)cc2NC(=O)NCc2cc(F)ccc2Oc2ccc3c(cnn3CCO)c2)cc1 [PEXMETINIB]	> 30 µM (inactive)
CNC(=O)c1ccc(C)c(-n2c(C)cc(OCc3ccc(F)cc3F)c(Br)c2=O)c1 [PH-797804]	> 30 µM (inactive)
C=CC(=O)N1CCC(Oc2cc3c(Nc4ccc(Cl)c(Cl)c4F)ncnc3cc2OC)CC1 [POZIOTINIB]	> 30 µM (inactive)
CNC(=O)c1cc(Oc2ccc(NC(=O)Nc3ccc(Cl)c(C(F)(F)F)c3)c(F)c2)ccn1 [REGORAFENIB]	> 30 µM (inactive)
CN(C)C(=O)c1cc2cnc(Nc3ccc(N4CCNCC4)cn3)nc2n1C1CCCC1 [RIBOCICLIB]	> 30 µM (inactive)
COc1cc(OC)c(/C=C/S(=O)(=O)Cc2ccc(OC)c(NCC(=O)O)c2)c(OC)c1 [RIGOSERTIB]	> 30 µM (inactive)
CNC(=O)CN1CCC(Oc2cc3c(Nc4cccc(Cl)c4F)ncnc3cc2OC)CC1 [SAPITINIB]	> 30 µM (inactive)
C[C@@H](c1ccc2nccn2c1)n1nnc2ncc(-c3cnn(C)c3)nc21 [SAVOLITINIB]	> 30 µM (inactive)
CN1CCC(CNc2ccc3ncc(-c4cccc(OC(F)(F)F)c4)n3n2)CC1 [SGI-1776]	> 30 µM (inactive)

biological target: T2, Serine/threonine-protein kinase TBK1 (Homo sapiens, UniProt Q9UHD2)
T2 sequence (Q9UHD2 whole entry): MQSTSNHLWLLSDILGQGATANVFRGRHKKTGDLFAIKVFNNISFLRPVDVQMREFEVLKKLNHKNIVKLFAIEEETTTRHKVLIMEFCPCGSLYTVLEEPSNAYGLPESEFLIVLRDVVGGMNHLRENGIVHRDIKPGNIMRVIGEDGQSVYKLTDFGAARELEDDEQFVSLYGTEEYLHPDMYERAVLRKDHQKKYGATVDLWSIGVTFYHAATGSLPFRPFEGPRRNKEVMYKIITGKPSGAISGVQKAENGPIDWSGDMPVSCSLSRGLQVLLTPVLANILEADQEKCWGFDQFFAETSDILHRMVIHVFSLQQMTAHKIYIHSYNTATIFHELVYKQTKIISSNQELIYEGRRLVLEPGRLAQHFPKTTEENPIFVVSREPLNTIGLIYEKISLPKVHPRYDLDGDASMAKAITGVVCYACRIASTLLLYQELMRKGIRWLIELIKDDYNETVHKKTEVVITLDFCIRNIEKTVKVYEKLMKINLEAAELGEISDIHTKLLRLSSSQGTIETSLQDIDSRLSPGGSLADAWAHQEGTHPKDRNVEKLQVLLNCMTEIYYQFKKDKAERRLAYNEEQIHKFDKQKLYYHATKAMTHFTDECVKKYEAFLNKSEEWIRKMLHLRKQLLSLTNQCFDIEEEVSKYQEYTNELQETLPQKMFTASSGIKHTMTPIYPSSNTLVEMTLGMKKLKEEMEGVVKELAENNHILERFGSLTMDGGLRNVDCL

Compound	Kd
O=C(O)[C@]1(Cc2cccc(Nc3nccs3)n2)CC[C@@H](Oc2cccc(Cl)c2F)CC1 [MK-5108]	> 30 µM (inactive)
C1=C/COCc2cc(ccc2OCCN2CCCC2)Nc2nccc(n2)-c2cccc(c2)COC/1 [PACRITINIB]	49.6 µM (active)
Cc1ccc(-n2nc(C(C)(C)C)cc2NC(=O)NCc2cc(F)ccc2Oc2ccc3c(cnn3CCO)c2)cc1 [PEXMETINIB]	> 30 µM (inactive)
CNC(=O)c1ccc(C)c(-n2c(C)cc(OCc3ccc(F)cc3F)c(Br)c2=O)c1 [PH-797804]	> 30 µM (inactive)
C=CC(=O)N1CCC(Oc2cc3c(Nc4ccc(Cl)c(Cl)c4F)ncnc3cc2OC)CC1 [POZIOTINIB]	> 30 µM (inactive)
CNC(=O)c1cc(Oc2ccc(NC(=O)Nc3ccc(Cl)c(C(F)(F)F)c3)c(F)c2)ccn1 [REGORAFENIB]	> 30 µM (inactive)
CN(C)C(=O)c1cc2cnc(Nc3ccc(N4CCNCC4)cn3)nc2n1C1CCCC1 [RIBOCICLIB]	> 30 µM (inactive)
COc1cc(OC)c(/C=C/S(=O)(=O)Cc2ccc(OC)c(NCC(=O)O)c2)c(OC)c1 [RIGOSERTIB]	> 30 µM (inactive)
CNC(=O)CN1CCC(Oc2cc3c(Nc4cccc(Cl)c4F)ncnc3cc2OC)CC1 [SAPITINIB]	> 30 µM (inactive)
C[C@@H](c1ccc2nccn2c1)n1nnc2ncc(-c3cnn(C)c3)nc21 [SAVOLITINIB]	> 30 µM (inactive)
CN1CCC(CNc2ccc3ncc(-c4cccc(OC(F)(F)F)c4)n3n2)CC1 [SGI-1776]	> 30 µM (inactive)

biological target: T3, Serine/threonine-protein kinase ICK (Homo sapiens, UniProt Q9UPZ9)
T3 sequence (Q9UPZ9 whole entry): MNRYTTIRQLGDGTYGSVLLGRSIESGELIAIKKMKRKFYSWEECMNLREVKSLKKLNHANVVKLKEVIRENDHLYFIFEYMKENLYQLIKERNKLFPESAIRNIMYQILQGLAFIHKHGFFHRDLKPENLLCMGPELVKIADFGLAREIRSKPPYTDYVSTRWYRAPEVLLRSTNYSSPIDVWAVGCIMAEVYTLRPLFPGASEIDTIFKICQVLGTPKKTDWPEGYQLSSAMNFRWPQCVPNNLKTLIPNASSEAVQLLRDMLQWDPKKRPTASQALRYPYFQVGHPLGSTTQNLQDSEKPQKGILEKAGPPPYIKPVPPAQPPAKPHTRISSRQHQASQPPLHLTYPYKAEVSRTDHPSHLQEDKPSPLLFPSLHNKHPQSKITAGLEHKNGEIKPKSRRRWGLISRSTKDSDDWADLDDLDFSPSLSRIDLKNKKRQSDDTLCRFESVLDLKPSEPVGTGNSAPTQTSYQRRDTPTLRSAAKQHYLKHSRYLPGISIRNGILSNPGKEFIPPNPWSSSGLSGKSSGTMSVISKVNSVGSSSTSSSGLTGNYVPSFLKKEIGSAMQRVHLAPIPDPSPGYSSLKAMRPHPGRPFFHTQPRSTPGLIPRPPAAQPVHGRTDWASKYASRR

Compound	Kd
O=C(O)[C@]1(Cc2cccc(Nc3nccs3)n2)CC[C@@H](Oc2cccc(Cl)c2F)CC1 [MK-5108]	> 30 µM (inactive)
C1=C/COCc2cc(ccc2OCCN2CCCC2)Nc2nccc(n2)-c2cccc(c2)COC/1 [PACRITINIB]	0.27 µM (active)
Cc1ccc(-n2nc(C(C)(C)C)cc2NC(=O)NCc2cc(F)ccc2Oc2ccc3c(cnn3CCO)c2)cc1 [PEXMETINIB]	> 30 µM (inactive)
CNC(=O)c1ccc(C)c(-n2c(C)cc(OCc3ccc(F)cc3F)c(Br)c2=O)c1 [PH-797804]	> 30 µM (inactive)
C=CC(=O)N1CCC(Oc2cc3c(Nc4ccc(Cl)c(Cl)c4F)ncnc3cc2OC)CC1 [POZIOTINIB]	> 30 µM (inactive)
CNC(=O)c1cc(Oc2ccc(NC(=O)Nc3ccc(Cl)c(C(F)(F)F)c3)c(F)c2)ccn1 [REGORAFENIB]	> 30 µM (inactive)
CN(C)C(=O)c1cc2cnc(Nc3ccc(N4CCNCC4)cn3)nc2n1C1CCCC1 [RIBOCICLIB]	> 30 µM (inactive)
COc1cc(OC)c(/C=C/S(=O)(=O)Cc2ccc(OC)c(NCC(=O)O)c2)c(OC)c1 [RIGOSERTIB]	> 30 µM (inactive)
CNC(=O)CN1CCC(Oc2cc3c(Nc4cccc(Cl)c4F)ncnc3cc2OC)CC1 [SAPITINIB]	> 30 µM (inactive)
C[C@@H](c1ccc2nccn2c1)n1nnc2ncc(-c3cnn(C)c3)nc21 [SAVOLITINIB]	> 30 µM (inactive)
CN1CCC(CNc2ccc3ncc(-c4cccc(OC(F)(F)F)c4)n3n2)CC1 [SGI-1776]	> 30 µM (inactive)
